Data: patent US20220340597A1, “HEXAHYDRO-1H-PYRAZINO[1,2-A]PYRAZINE COMPOUNDS FOR THE TREATMENT OF AUTOIMMUNE DISEASE” (Hoffmann-La Roche Inc., priority 2019, published 2022)
≈ marks a conversion by molar mass, not a printed value.

Experiments:
[1] = tested on: Balb/c 3T3 mouse fibroblasts; assay: 3T3 in vitro phototoxicity assay (Neutral Red uptake); assay type: cell-based; conditions: for Phototoxicity factor: Factor=IC50(-UV)/IC50(+UV), cut-off >5; for IC50: Mus musculus, BALB/c3T3, light or radiation study, with approx. 5 J/cm2 UVA light, Neutral Red uptake
Excerpt: 3T3 In Vitro Phototoxicity Assay
Phototoxicity is defined as a toxic response that is elicited after the first exposure of the skin to certain chemicals and subsequent exposure to light, or that is induced similarly by skin irradiation after systemic administration of a chemical substance. The assay used in this study is designed to detect the phototoxic potential of a chemical by using a simple in vitro cytotoxicity assay with Balb/c 3T3 mouse fibroblasts. The principle of this test is a comparison of the cytotoxicity of a chemical when tested with and without exposure to a non-toxic dose of UVA-light. Cytotoxicity is expressed as a dose dependent reduction of the growth rate of cells as determined by uptake of the vital dye Neutral Red one day after treatment.
A small amount of substance was weighed and formulated freshly in DMSO just before the start of the exposure of the cells. This stock solution or appropriate dilutions with DMSO were added to the cell suspensions to obtain the required final concentrations. All solutions were generally prepared in Eppendorf caps and discarded after use.
Chlorpromazine (HCL) (Sigma, Batch/Lot No.: 120M1328V), test concentration: 300 μg/mL, Solvent: PBS/3% DMSO
For this study the Neutral Red uptake (NRU) assay of Borenfreund and Puemer (Borenfreund, E, Puemer J A. Toxicity determined in vitro by morphological alterations and Neutral Red absorption. Toxicology Lett. 1985; 24:119-124) modified according to INVITTOX protocol No 78 (ERGATT/FRAME data bank of in vitro techniques in toxicology. INVITTOX PROTOCOL No 78. 3T3 NRU Phototoxicity Assay. March 1994) has been adapted to examine a possible phototoxic potential of the test item. This assay is based on the active uptake of the Neutral Red dye into the lysosomes of cultured murine fibroblasts. Because lysosomal membranes are known to be a site of action of many phototoxic compounds, this assay can provide a measure of potential for phototoxic injury.
A murine fibroblasts clone A 31 (ATCC no. CCL 163—passage No. 108) were cultured in 175 cm^2 tissue culture grade flasks, containing sDMEM (Dulbecco's […] Essential Medium, supplemented with 10% fetal calf serum, 2 mM L-glutamine, 100 units/ml Penicillin and 100 μg/ml streptomycin) at 37° C. in a humidified atmosphere of 6% CO2. Before cells approach confluence they were removed from flasks by trypsinisation. Prior to use in an assay, the cells were transferred to 96-well microtiter plates at a concentration of 1×10^4 cells/well in 100 μl volumes of sDMEM and allowed to attach for 24 h.
For incubation with murine fibroblasts, the test item was diluted in PBS/3% DMSO (detailed concentrations see in results).
Culture medium (Dulbecco's Modified Eagle Medium (DMEM), GlutaMAX (Gibco Ref 21885-025), 10% Fetal Bovine Serum (FBS) (Gibco Ref 10270-106), 100 IU/ml Penicillin and 100 μg/ml Streptomycin (Gibco Ref 15140-122)) was removed from the wells and murine fibroblasts were washed with PBS. Afterwards 100 μL of PBS/3% DMSO containing the test item was added and target cells were incubated for 1 h at 37° C. with 6% CO2.
For each test item the microtiter plates were prepared according to Table 4. “UVA plates” were exposed to approx. 5 J/cm^2 UVA light, the “Dark plates” were kept in the dark and served as cytotoxicity control. Plates with chlorpromazine hydrochloride served as positive control. UV flux was measured with a UV-meter (Dr. Gröbel RM21).
Following UV irradiation, the test item was removed from the wells (one washing step with PBS) and replaced with sDMEM. Target cells were then incubated overnight at 37° C. in 6% CO2.
Each plate contained wells with cells and solvent but without test item which were either not incubated with Neutral Red solution (0% standard—S1) or were stained with Neutral Red (100% standard—S2) for calculation of the standard cell viability curve. Wells labeled with U01-U08 contained the different test item concentrations. […]

[2] = target: T1, hERG channel (Homo sapiens, UniProt Q12809); assay: hERG channel inhibition assay (patch-clamp, CHOhERG cells); assay type: cell-based; conditions: for IC50 / IC20: CHOhERG cells, whole-cell patch-clamp; for IC20: human, CHO cells stably expressing hERG (CHOhERG); for hERG IC20/TLR7 IC50 / hERG IC20/TLR8 IC50 / hERG IC20/TLR9 IC50: safety ratio
T1 construct: expressed in transfected cells; host or cells: CHO (Chinese hamster ovary), CHOhERG
T1 sequence (Q12809 whole entry): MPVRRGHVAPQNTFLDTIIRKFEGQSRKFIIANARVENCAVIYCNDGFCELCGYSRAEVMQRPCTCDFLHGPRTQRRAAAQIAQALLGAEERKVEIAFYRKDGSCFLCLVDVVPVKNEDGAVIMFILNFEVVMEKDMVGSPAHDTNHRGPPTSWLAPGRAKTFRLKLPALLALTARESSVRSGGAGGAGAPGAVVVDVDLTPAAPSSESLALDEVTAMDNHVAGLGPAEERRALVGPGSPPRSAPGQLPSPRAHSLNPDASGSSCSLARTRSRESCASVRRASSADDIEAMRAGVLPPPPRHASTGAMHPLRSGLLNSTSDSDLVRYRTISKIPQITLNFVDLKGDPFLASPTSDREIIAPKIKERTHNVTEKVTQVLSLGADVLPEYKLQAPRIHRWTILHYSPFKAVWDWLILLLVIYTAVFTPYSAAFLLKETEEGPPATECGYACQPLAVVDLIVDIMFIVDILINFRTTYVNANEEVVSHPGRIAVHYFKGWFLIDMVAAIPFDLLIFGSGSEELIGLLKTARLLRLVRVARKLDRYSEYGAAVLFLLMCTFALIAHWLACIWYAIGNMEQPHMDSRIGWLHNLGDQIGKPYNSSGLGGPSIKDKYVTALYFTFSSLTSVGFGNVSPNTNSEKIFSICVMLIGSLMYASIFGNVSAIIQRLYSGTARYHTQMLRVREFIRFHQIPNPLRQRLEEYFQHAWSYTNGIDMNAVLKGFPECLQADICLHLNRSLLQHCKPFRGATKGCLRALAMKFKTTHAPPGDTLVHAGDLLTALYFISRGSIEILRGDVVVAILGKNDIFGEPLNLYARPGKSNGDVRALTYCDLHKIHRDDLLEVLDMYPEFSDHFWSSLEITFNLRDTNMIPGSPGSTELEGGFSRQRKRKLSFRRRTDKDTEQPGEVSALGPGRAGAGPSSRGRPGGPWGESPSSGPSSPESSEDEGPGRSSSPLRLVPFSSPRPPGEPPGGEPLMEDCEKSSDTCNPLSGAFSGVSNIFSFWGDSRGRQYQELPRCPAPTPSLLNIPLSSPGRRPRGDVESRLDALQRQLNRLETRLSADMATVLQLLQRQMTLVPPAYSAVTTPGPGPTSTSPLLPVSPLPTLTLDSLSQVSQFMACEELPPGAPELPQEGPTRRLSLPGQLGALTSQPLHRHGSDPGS
Experimental: hERG Channel Inhibition Assay:
The hERG K^+ channels were cloned in humans and stably expressed in a CHO (Chinese hamster ovary) cell line. CHOhERG cells were used for patch-clamp (voltage-clamp, whole-cell) experiments. Cells were stimulated by a voltage pattern to activate hERG channels and conduct IKhERG currents (rapid delayed outward rectifier potassium current of the hERG channel). After the cells were stabilized for a few minutes, the amplitude and kinetics of IKhERG were recorded at a stimulation frequency of 0.1 Hz (6 bpm). Thereafter, the test compound was added to the preparation at increasing concentrations. For each concentration, an attempt was made to reach a steady-state effect, usually, this was achieved within 3-10 min at which time the next highest concentration was applied. The amplitude and kinetics of IKhERG are recorded in each concentration of the drug which were compared to the control values (taken as 100%). (references: Redfern W S, Carlsson L, Davis A S, Lynch W G, MacKenzie I, Palethorpe S, Siegl P K, Strang I, Sullivan A T, Wallis R, Camm A J, Hammond T G. 2003; Relationships between preclinical cardiac electrophysiology, clinical QT interval prolongation and torsade de pointes for a broad range of drugs: evidence for a provisional safety margin in drug development. Cardiovasc. Res. 58:32-45, Sanguinetti M C, Tristani-Firouzi M. 2006; hERG potassium channels and cardiac arrhythmia. Nature 440:463-469, Webster R, Leishman D, Walker D. 2002; Towards a drug concentration effect relationship for QT prolongation and torsades de pointes. Curr. Opin. Drug Discov. Devel. 5:116-26).
The calculation of hERG IC20/TLR7/8/9 IC50 below serves as early selectivity index to assess hERG liability.

Row | SMILES | Phototoxicity factor [1] | IC50 [1] [µg/mL] | IC50 [2] [µM] | IC20 [2] [µM] | hERG IC20/TLR7 IC50 [2] | hERG IC20/TLR8 IC50 [2] | hERG IC20/TLR9 IC50 [2]
1 | C[C@@H]1CN(c2ccc(C#N)c3ncccc23)C[C@@H]2CN(Cc3ccc4c(c3)CNCC4)CCN21 [Example 5, 5-[(4R,9aS)-4-methyl-8-(1,2,3,4-tetrahydroisoquinolin-7-ylmethyl)-3,4,6,7,9,9a-hexahydro-1H-pyrazino[1,2-a]pyrazin-2-yl]quinoline-8-carbonitrile] | >1.39 | 23.3 (≈ 51.5 µM) | > 20 | > 10 | >588 | >833 | >313
2 | C[C@@H]1CN(c2ccc(C#N)c3ncccc23)C[C@@H]2CN(c3cccc4c3CNC4)CCN21 [Example 9, 5-[(4R,9aS)-8-isoindolin-4-yl-4-methyl-3,4,6,7,9,9a-hexahydro-1H-pyrazino[1,2-a]pyrazin-2-yl]quinoline-8-carbonitrile] | >3.9 | 26.3 (≈ 61.9 µM) | > 20 | 5.17 | 1723 | 5170 | 65
3 | CO[C@@H]1CN(c2ccc(CCN3CCN4[C@@H](C3)CN(c3ccc(C#N)c5ncccc35)C[C@H]4C)cn2)C[C@H]1N [Example 12, 5-[(4R,9aS)-8-[2-[6-[(3R,4R)-3-amino-4-methoxy-pyrrolidin-1-yl]-3-pyridyl]ethyl]-4-methyl-3,4,6,7,9,9a-hexahydro-1H-pyrazino[1,2-a]pyrazin-2-yl]quinoline-8-carbonitrile] | >2.53 |  | > 20 | > 10 | >833 | >714 | >213
4 | CO[C@@H]1CN(c2ccc(CCN3CCN4[C@@H](C3)CN(c3ccc(C#N)n5nccc35)C[C@H]4C)cc2)C[C@H]1N [Example 68, 4-[(4R,9aS)-8-[2-[4-[(3R,4R)-3-amino-4-methoxy-pyrrolidin-1-yl]phenyl]ethyl]-4-methyl-3,4,6,7,9,9a-hexahydro-1H-pyrazino[1,2-a]pyrazin-2-yl]pyrazolo[1,5-a]pyridine-7-carbonitrile] | 1.53 | 65.9 (≈ 128 µM) |  |  |  |  | 
5 | [2H]c1ccc2c(N3C[C@@H]4CN(c5ccc(CCN6C[C@H](OC)[C@@H](N)C6)cn5)CCN4[C@H](C)C3)ccc(C#N)c2n1 [Example 109, 5-[(4R,9aR)-8-[5-[2-[(3S,4S)-3-amino-4-methoxy-pyrrolidin-1-yl]ethyl]-2-pyridyl]-4-methyl-3,4,6,7,9,9a-hexahydro-1H-pyrazino[1,2-a]pyrazin-2-yl]-2-deuterio-quinoline-8-carbonitrile] |  |  | > 20 | > 10 | >2000 | >2500 | >90
6 | [2H]c1ccc2c(N3C[C@@H]4CN(c5ncc(N6C[C@@H]7C[C@H]6CN7)cc5C)CCN4[C@@H](C)C3)ccc(C#N)c2n1 [Example 111, 5-[(4S,9aR)-8-[5-[(1S,4S)-2,5-diazabicyclo[2.2.1]heptan-2-yl]-3-methyl-2-pyridyl]-4-methyl-3,4,6,7,9,9a-hexahydro-1H-pyrazino[1,2-a]pyrazin-2-yl]-2-deuterio-quinoline-8-carbonitrile] |  |  | > 20 | > 10 | >1666 | >2000 | >84
7 | [2H]c1ccc2c(N3C[C@@H]4CN(c5ccc(N6CC7CCC(C6)N7)nc5)CCN4[C@@H](C)C3)ccc(C#N)c2n1 [Example 112, 5-[(4S,9aR)-8-[6-(3,8-diazabicyclo[3.2.1]octan-3-yl)-3-pyridyl]-4-methyl-3,4,6,7,9,9a-hexahydro-1H-pyrazino[1,2-a]pyrazin-2-yl]-2-deuterio-quinoline-8-carbonitrile] |  |  | > 20 | > 10 | >2500 | >1000 | >122
8 | Cc1cc(N2CC3(CN(C)C3)C2)cnc1N1CCN2[C@@H](C1)CN(c1cc(=O)n(C)c3ncccc13)C[C@@H]2C [Example 113, 4-[(4S,9aR)-4-methyl-8-[3-methyl-5-(6-methyl-2,6-diazaspiro[3.3]heptan-2-yl)-2-pyridyl]-3,4,6,7,9,9a-hexahydro-1H-pyrazino[1,2-a]pyrazin-2-yl]-1-methyl-1,8-naphthyridin-2-one] |  |  | > 20 | > 10 | >1666 | >70 | >79
9 | [2H]c1ccc2c(N3C[C@@H]4CN(c5ccc(N6C[C@@H](N)[C@H](OC)C6)nc5)CCN4[C@@H](C)C3)ccc(C#N)c2n1 [Example 115, 5-[(4S,9aR)-8-[6-[(3R,4R)-3-amino-4-methoxy-pyrrolidin-1-yl]-3-pyridyl]-4-methyl-3,4,6,7,9,9a-hexahydro-1H-pyrazino[1,2-a]pyrazin-2-yl]-2-deuterio-quinoline-8-carbonitrile] |  |  | > 20 | > 10 | >1000 | >588 | >71
10 | [2H]c1ccc2c(N3C[C@@H]4CN(c5ncc(N6CC(C)(N)C6)cc5C)CCN4[C@@H](C)C3)ccc(C#N)c2n1 [Example 118, 5-[(4S,9aR)-8-[5-(3-amino-3-methyl-azetidin-1-yl)-3-methyl-2-pyridyl]-4-methyl-3,4,6,7,9,9a-hexahydro-1H-pyrazino[1,2-a]pyrazin-2-yl]-2-deuterio-quinoline-8-carbonitrile] |  |  | > 20 | 7.66 | 1914 | 1276 | 51
11 | [2H]c1ccc2c(N3C[C@@H]4CN(c5ccc6c(n5)CCNC6)CCN4[C@@H](C)C3)ccc(C#N)c2n1 [Example 121, 5-[(4S,9aR)-4-methyl-8-(5,6,7,8-tetrahydro-1,6-naphthyridin-2-yl)-3,4,6,7,9,9a-hexahydro-1H-pyrazino[1,2-a]pyrazin-2-yl]-2-deuterio-quinoline-8-carbonitrile] |  |  | > 20 | > 10 | >2000 | >10000 | >117
